# Assay results from patent publication US12398154B2, “Azaquinazoline pan-KRas inhibitors” (Mirati Therapeutics, Inc., priority 2020, dated 2025).
# Legend:
# pERK in PSN1 cells = assay: Inhibition of KRas phosphorylation of ERK (Cisbio HTRF pERK assay); settings: Homo sapiens, PSN1, 3 h, read-out: Inhibition (HTRF IC50) of KRas-mediated Phosphorylation of ERK, PSN1
# Method: To harvest cells from flask using 0.05% Trypsin/EDTA solution. Add 10 mL of media to stop trypsinizing. Pipette the cells into a conical bottom 50 mL centrifuge tube and centrifuge 5 min×1000 rpm. • 2. Re-suspend the cell pellet in media, take a cell count, and then adjust the cell density using fresh media. • 3. Seed 6,000 cells into cell culture plate with 50 μL media. […] Incubate cell plate overnight in a 37° C., 5% CO2 incubator. • Compound titrations • 1. Use Tecan to complete the compound addition. Compounds start from 10 uM top, 3-fold dilution, and 10 doses. The final DMSO concentration is 0.8%. Dispensed 0.2 uM Trametinib as Min control. • 2. Incubate cell plate for 3 hrs in the incubator. • Detection with cisbio pERK HTRF kit • 1. […] At the end of the compound treatment, flick-off the media. • 3. Add 35 μL of lysis buffer per well using a Multidrop Combi. Then place on a plate agitator shaking at 300 rpm at 4° C. for 40 mins. • 4. Make up the HTRF antibody buffer. For each assay plate, mix 50 μL of d2-conjugate antibody with 950 μL of detection buffer. Similarly, mix 50 μL of Cryptate antibody with 950 μL of detection buffer. Then mix the two diluted antibodies together. • 5. Dispense 3.4 μL the antibody buffer to wells of an empty assay plate. Seal the plate and centrifuge plate 30 sec×1000 rpm. • 6. At the end of the 4° C. lysis, centrifuge the lysate plates 3 mins×1500 rpm. • 7. Use the Bravo to transfer 13.6 μL of lysate from cell culture plate to assay plate.
# Then incubate assay plate for 2 hrs at room temperature. […] At the end of incubation, read plate on the Envision after centrifuging plate 30 sec× • 1000 rpm.
# pERK in MKN1 cells = assay: as above; settings: Homo sapiens, MKN-1, 3 h, read-out: Inhibition (HTRF IC50) of KRas-mediated Phosphorylation of ERK, MKN1
# KRas G12R = KRas G12R (Homo sapiens, UniProt P01116, G12R); assay: biochemical;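 further: TR-FRET displacement assay of compound binding to KRas, read after one hour at room temperature, potency from a four-parameter fit of percent-of-control values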
# Chain of KRas G12R (P01116 1-169 isoform P01116-2 G12R): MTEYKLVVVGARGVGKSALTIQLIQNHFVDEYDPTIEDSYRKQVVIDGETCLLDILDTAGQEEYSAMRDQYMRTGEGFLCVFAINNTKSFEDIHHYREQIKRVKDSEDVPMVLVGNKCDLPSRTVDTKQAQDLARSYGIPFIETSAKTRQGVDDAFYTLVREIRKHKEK
# Method: (§5) The ability of a compound to bind to KRas was measured using a TR-FRET displacement assay. […] After a 60-minute incubation at room temperature, the reaction was measured using a BMG LABTECH CLARIO star Plus via TR-FRET. […] The POC values were fit to a 4-parameter IC50 equation and the IC50 value reported.
# KRas G12V = KRas G12V (Homo sapiens, UniProt P01116, G12V); assay: biochemical;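 further: KRas binding measured by TR-FRET displacement at room temperature, IC50 fitted from percent of control values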
# Chain of KRas G12V (P01116 1-169 isoform P01116-2 G12V): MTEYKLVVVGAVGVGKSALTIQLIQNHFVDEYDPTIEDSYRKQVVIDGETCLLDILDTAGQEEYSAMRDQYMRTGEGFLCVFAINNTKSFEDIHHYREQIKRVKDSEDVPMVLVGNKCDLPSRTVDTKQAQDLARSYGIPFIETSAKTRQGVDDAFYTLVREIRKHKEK
# Method: as §5
# KRas G12D = KRas G12D (Homo sapiens, UniProt P01116, G12D); assay: biochemical;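 further: TR-FRET displacement binding assay on KRas, read after a one-hour incubation at room temperature, IC50 fitted from percent-of-control values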
# Chain of KRas G12D (P01116 1-169 isoform P01116-2 G12D): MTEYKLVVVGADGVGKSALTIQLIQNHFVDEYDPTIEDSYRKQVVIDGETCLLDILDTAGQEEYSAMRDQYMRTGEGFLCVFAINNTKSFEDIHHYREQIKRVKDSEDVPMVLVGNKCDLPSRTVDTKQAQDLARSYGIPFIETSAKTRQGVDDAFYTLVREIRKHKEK
# Method: as §5
# [1] = tested on: phospho-ERK in NCI-H460 (Q61H) cells; assay: Inhibition of KRas-mediated phosphorylation of ERK (in-cell western); format: cell-based; settings: Homo sapiens, NCI-H460, 3 h, 3 hours compound, phospho-ERK normalized to GAPDH
# Method: (§1) Diluted compounds were then added in a final concentration of 0.5% DMSO. After 3 hours, 50 μL of 4.0% formaldehyde was added and the plates incubated at room temperature for 20 minutes. The plates were then dumped and permeabilized with 150 μL of ice cold 100% methanol for 10 minutes.
# (§2) The amount of phospho-ERK was determined using an antibody specific for the phosphorylated form of ERK and compared to the amount of GAPDH. […] The plates were incubated overnight at 4° C. The plates were washed 3× with 150 uL PBS+0.1% Tween 20.
# (§3) The plates were washed 3× with 150 uL PBS+0.1% Tween 20. Plates were imaged dry on a Li-COR Odyssey CLX plate reader.
# (§4) The phospho-ERK (Thr202/Tyr204) signal was normalized to the GAPDH signal for each well and percent of DMSO control values were calculated. IC50 values were generated using a 4-parameter fit of the dose response curve.
# [2] = tested on: phospho-ERK in AsPC-1 (G12D) cells; assay: as above; format: cell-based; settings: Homo sapiens, ASPC1, 3 h, 3 hours compound, phospho-ERK normalized to GAPDH
# Method: as §1, §2, §3, §4
# [3] = tested on: phospho-ERK in NCI-H727 (G12V) cells; assay: as above; format: cell-based; settings: Homo sapiens, NCI-H727, 3 h, 3 hours compound, phospho-ERK normalized to GAPDH
# Method: as §1, §2, §3, §4
IC50 (pERK in PSN1 cells) [nM],IC50 (pERK in MKN1 cells) [nM],IC50 (KRas G12R) [nM],IC50 (KRas G12V) [nM],IC50 (KRas G12D) [nM],SMILES,IC50 [1] [nM],IC50 [2] [nM],IC50 [3] [nM]
2880,44,6,5,7,"C#Cc1c(F)ccc2cc(O)cc(-c3ncc4c(N5CCOC[C@](C)(O)C5)nc(OC[C@@]56CCCN5C[C@H](F)C6)nc4c3F)c12 (single isomer, unassigned) [Example 386]",299,1180,1020
2880,6,≤ 2,≤ 2,3,"Oc1cc(-c2ncc3c(N4CCC[C@]5(C4)C[C@H](O)C5)nc(OC[C@@]45CCCN4C[C@H](F)C5)nc3c2F)c2c(F)c(F)ccc2c1 (single isomer, unassigned) [Example 441]",70,119,139
2850,9,≤ 2,≤ 2,≤ 2,"Oc1cc(-c2ncc3c(N4CCC[C@]5(C4)C[C@@H](O)C5)nc(OC[C@@]45CCCN4C[C@H](F)C5)nc3c2F)c2c(F)c(F)ccc2c1 (single isomer, unassigned) [Example 442]",124,134,234
≥ 10000,187,3,≤ 2,31,CCc1c(F)ccc2cc(O)cc(-c3ncc4c(NCc5n[nH]cc5C(N)=O)nc(OC[C@@]56CCCN5C[C@H](F)C6)nc4c3F)c12 [Example 162],6770,4530,4170
≥ 10000,3,≤ 2,≤ 2,16,"CCc1c(F)ccc2cc(O)cc(-c3ncc4c(NC56CC(CO)(C5)C6)nc(OC[C@@]56CCCN5C[C@H](F)C6)nc4c3F)c12 [Example 167, 5-ethyl-6-fluoro-4-(8-fluoro-2-(((2R,7aS)-2-fluorohexahydro-1H-pyrrolizin-7a-yl)methoxy)-4-((3-(hydroxymethyl)bicyclo[1.1.1]pentan-1-yl)amino)pyrido[4,3-d]pyrimidin-7-yl) naphthalen-2-ol]",623,6760,1250
≥ 10000,100,≤ 2,≤ 2,4,"CCc1c(F)ccc2cc(O)cc(-c3ncc4c(NCCc5c[nH]nn5)nc(OC[C@@]56CCCN5C[C@H](F)C6)nc4c3F)c12 [Example 169, 4-(4-((2-(1H-1,2,3-triazol-4-yl)ethyl)amino)-8-fluoro-2-(((2R,7aS)-2-fluorohexahydro-1H-pyrrolizin-7a-yl)methoxy)pyrido[4,3-d]pyrimidin-7-yl)-5-ethyl-6-fluoronaphthalen-2-ol]",931,2890,1810
≥ 10000,39,≤ 2,≤ 2,38,"CCc1c(F)ccc2cc(O)cc(-c3ncc4c(NCc5ccc6nonc6c5)nc(OC[C@@]56CCCN5C[C@H](F)C6)nc4c3F)c12 [Example 175, 4-(4-((benzo[c][1,2,5]oxadiazol-5-ylmethyl)amino)-8-fluoro-2-(((2R,7aS)-2-fluorohexahydro-1H-pyrrolizin-7a-yl)methoxy)pyrido[4,3-d]pyrimidin-7-yl)-5-ethyl-6-fluoronaphthalen-2-ol]",675,1720,756
≥ 10000,49,14,7,18,CCc1c(F)ccc2cc(O)cc(-c3ncc4c(N5C[C@H](O)C[C@@H](F)C5)nc(OC[C@@]56CCCN5C[C@H](F)C6)nc4c3F)c12 [Example 178],728,606,2110
6960,10,–,–,–,CCc1c(F)ccc2cc(O)cc(-c3ncc4c(N5CC[C@H](F)[C@@H](O)C5)nc(OC[C@@]56CCCN5C[C@H](F)C6)nc4c3F)c12 [Example 179],274,785,675
6900,10,4,≤ 2,4,CCc1c(F)ccc2cc(O)cc(-c3ncc4c(N5C[C@@H](C)C[C@@H](O)C5)nc(OC[C@@]56CCCN5C[C@H](F)C6)nc4c3F)c12 [Example 180],113,205,623
6700,139,10,17,29,CCc1c(F)ccc2cc(O)cc(-c3ncc4c(N5CCC[C@@H](O)[C@H]5C)nc(OC[C@@]56CCCN5C[C@H](F)C6)nc4c3F)c12 [Example 181],584,1540,1610
6900,5,–,–,–,CCc1c(F)ccc2cc(O)cc(-c3ncc4c(N5C[C@H](O)CC[C@H]5C)nc(OC[C@@]56CCCN5C[C@H](F)C6)nc4c3F)c12 [Example 182],157,547,355
4230,2,–,–,–,CCc1c(F)ccc2cc(O)cc(-c3ncc4c(N5CCCC(O)(C(F)(F)F)C5)nc(OC[C@@]56CCCN5C[C@H](F)C6)nc4c3F)c12 (stereo partly drawn) [Example 183],137,399,720
4840,17,9,9,11,CCc1c(F)ccc2cc(O)cc(-c3ncc4c(N5CCC[C@@H](O)[C@@H]5C)nc(OC[C@@]56CCCN5C[C@H](F)C6)nc4c3F)c12 [Example 185],424,306,481
≥ 10000,108,–,–,–,CCc1c(F)ccc2cc(O)cc(-c3ncc4c(N5C[C@H](O)CC[C@@H]5C)nc(OC[C@@]56CCCN5C[C@H](F)C6)nc4c3F)c12 [Example 186],592,1590,1060
4990,11,≤ 2,≤ 2,–,CCc1c(F)ccc2cc(O)cc(-c3ncc4c(N5CC(O)CC(F)(F)C5)nc(OC[C@@]56CCCN5C[C@H](F)C6)nc4c3F)c12 (stereo partly drawn) [Example 190],62,189,272
6800,57,–,–,–,"CCc1c(F)ccc2cc(O)cc(-c3ncc4c(N5CCCC(CO)C5)nc(OC[C@@]56CCCN5C[C@H](F)C6)nc4c3F)c12 (stereo partly drawn) [Example 306, 5-ethyl-6-fluoro-4-(8-fluoro-2-(((2R,7aS)-2-fluorohexahydro-1H-pyrrolizin-7a-yl)methoxy)-4-(3-(hydroxymethyl)piperidin-1-yl)pyrido[4,3-d]pyrimidin-7-yl)naphthalen-2-ol]",306,405,461
–,–,≤ 2,≤ 2,8,"CCc1c(F)ccc2cc(O)cc(-c3ncc4c(NC5CN(C(N)=O)C5)nc(OC[C@@]56CCCN5C[C@H](F)C6)nc4c3F)c12 [Example 310, 3-((7-(8-ethyl-7-fluoro-3-hydroxynaphthalen-1-yl)-8-fluoro-2-(((2R,7aS)-2-fluorohexahydro-1H-pyrrolizin-7a-yl)methoxy)pyrido[4,3-d]pyrimidin-4-yl)amino)azetidine-1-carboxamide]",3790,≥ 10000,3370
